Here are results for 25 molecules from patent US9776962B2, “Aromatic compounds with GPR40 agonistic activity” (TAKEDA PHARMACEUTICAL COMPANY LIMITED, priority 2013, dated 2017).

The structures appear in SMILES notation.

The assay deals with T1, human GPR40 (Homo sapiens, UniProt O14842).
T1 construct: expressed in transfected cells
T1 sequence (O14842 whole entry): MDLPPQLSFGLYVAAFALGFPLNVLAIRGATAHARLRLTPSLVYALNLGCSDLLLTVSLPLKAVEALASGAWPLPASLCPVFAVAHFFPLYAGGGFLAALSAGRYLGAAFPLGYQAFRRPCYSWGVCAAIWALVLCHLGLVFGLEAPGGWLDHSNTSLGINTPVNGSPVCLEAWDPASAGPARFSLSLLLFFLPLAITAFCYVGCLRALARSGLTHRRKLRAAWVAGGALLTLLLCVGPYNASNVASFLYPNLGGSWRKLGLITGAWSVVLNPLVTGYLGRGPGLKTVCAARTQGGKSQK
The experiment in a line: Evaluation of human GPR40 agonist activity with increase in intracellular Ca2+ concentration as an index (FLIPR). The settings on record: test compound 1 μM; CHO(dhfr−) cells stably expressing human GPR40; 100% = 10 μM compound of Example 153, 0% = DMSO. In kind it is cell-based. Summed up: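 CHO(dhfr−) cells stably expressing full-length human GPR40 were loaded with Ca2+ probe for 1 h at room temperature, then given test compound at 1 μM final. Fluorescence was followed on FLIPR, with activity scaled to a reference agonist at 10 μM (100%) and DMSO (0%).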
The molecule `Cc1ccc(C(=O)N(CC(C)(C)C)c2cccc(C)n2)c(N2CCC(COc3cc(C(CC(=O)O)C4CC4)ccn3)CC2)c1` (stereo not shown) [Example 258, 3-cyclopropyl-3-(2-((1-(2-((2,2-dimethylpropyl)(6-methylpyridin-2-yl)carbamoyl)-5-methylphenyl)piperidin-4-yl)methoxy)pyridin-4-yl)propanoic acid] showed an activation at 1 µM of 94%. Same read-out and setting: then `COc1ccc(C(=O)N2CCc3ccccc32)c(N2CCC(COc3cccc(C(CC(=O)O)C4CC4)c3)CC2)c1` (stereo not shown) [Example 4, 3-cyclopropyl-3-(3-((1-(2-(2,3-dihydro-1H-indol-1-ylcarbonyl)-5-methoxyphenyl)piperidin-4-yl)methoxy)phenyl)propanoic acid], with 97%. In the case of `COc1ccc(C(=O)N(CC2(F)CC2)c2ccccc2)c(N2CCC(COc3cc(C(CC(=O)O)C4CC4)ccn3)CC2)c1` (stereo not shown) [Example 189, 3-cyclopropyl-3-(2-((1-(2-(((1-fluorocyclopropyl)methyl)(phenyl)carbamoyl)-5-methoxyphenyl)piperidin-4-yl)methoxy)pyridin-4-yl)propanoic acid], the activation at 1 µM turned out to be 89%. `CCOC(CC(=O)O)c1ccnc(OCC2CCN(c3cc(OC)ccc3C(=O)N(CC(C)(C)C)c3cccc(C)n3)CC2)c1` (stereo not shown) [Example 272, 3-(2-((1-(2-((2,2-dimethylpropyl)(6-methylpyridin-2-yl)carbamoyl)-5-methoxyphenyl)piperidin-4-yl)methoxy)pyridin-4-yl)-3-ethoxypropanoic acid] returned an activation at 1 µM of 95%. Regarding `COc1ccc(C(=O)N(CC(C)(C)C)c2cccc(C)n2)c(N2CCC(COc3cccc(C(CC(=O)O)OC)c3)CC2)c1` (stereo not shown) [Example 269, 3-(3-((1-(2-((2,2-dimethylpropyl)(6-methylpyridin-2-yl)carbamoyl)-5-methoxyphenyl)piperidin-4-yl)methoxy)phenyl)-3-methoxypropanoic acid], the activation at 1 µM was determined as 103%. `COc1ccc(C(=O)N(CC(C)(C)C)c2cc(C)ccn2)c(N2CCC(COc3cc(C(CC(=O)O)C4CC4)ccn3)CC2)c1` (stereo not shown) [Example 112, 3-cyclopropyl-3-(2-((1-(2-((2,2-dimethylpropyl)(4-methylpyridin-2-yl)carbamoyl)-5-methoxyphenyl)piperidin-4-yl)methoxy)pyridin-4-yl)propanoic acid]: the activation at 1 µM came out at 98%. In turn, `COc1ccc(C(=O)N(CC(F)(F)F)c2ccnc(C)c2)c(N2CCC(COc3cc(C(CC(=O)O)C4CC4)ccn3)CC2)c1` (stereo not shown) [Example 163, 3-cyclopropyl-3-(2-((1-(5-methoxy-2-((2-methylpyridin-4-yl)(2,2,2-trifluoroethyl)carbamoyl)phenyl)piperidin-4-yl)methoxy)pyridin-4-yl)propanoic acid] yielded an activation at 1 µM of 89%. The molecule `COc1ccc(C(=O)N(CC(C)C)c2cccc(C#N)c2)c(N2CCC(COc3cc(C(CC(=O)O)C4CC4)ccn3)CC2)c1` (stereo not shown) [Example 132, 3-(2-((1-(2-((3-cyanophenyl)(2-methylpropyl)carbamoyl)-5-methoxyphenyl)piperidin-4-yl)methoxy)pyridin-4-yl)-3-cyclopropylpropanoic acid] gave an activation at 1 µM of 99%. On the same count and under the same terms, then `COc1ccc(C(=O)N(CC(C)(C)O)c2ccccn2)c(N2CCC(COc3cc(C(CC(=O)O)C4CC4)ccn3)CC2)c1` (stereo not shown) [Example 119, 3-cyclopropyl-3-(2-((1-(2-((2-hydroxy-2-methylpropyl)(pyridin-2-yl)carbamoyl)-5-methoxyphenyl)piperidin-4-yl)methoxy)pyridin-4-yl)propanoic acid], with 52%; and `COc1ccc(C(=O)N(CC(F)(F)F)c2ncccn2)c(N2CCC(COc3cc(C(CC(=O)O)C4CC4)ccn3)CC2)c1` (stereo not shown) [Example 166, 3-cyclopropyl-3-(2-((1-(5-methoxy-2-(pyrimidin-2-yl(2,2,2-trifluoroethyl)carbamoyl)phenyl)piperidin-4-yl)methoxy)pyridin-4-yl)propanoic acid], with 97%; and `COc1c(F)cc(C(=O)N(CC(C)(C)C)c2cccc(C)n2)c(N2CCC(COc3cc(C(CC(=O)O)C4CC4)ccn3)CC2)c1F` (stereo not shown) [Example 253, 3-cyclopropyl-3-(2-((1-(6-((2,2-dimethylpropyl)(6-methylpyridin-2-yl)carbamoyl)-2,4-difluoro-3-methoxyphenyl)piperidin-4-yl)methoxy)pyridin-4-yl)propanoic acid], with 74%. On to `COc1ccc(C(=O)N(CC(F)(F)F)c2cc(C)nc(C)n2)c(N2CCC(COc3cc(C(CC(=O)O)C4CC4)ccn3)CC2)c1` (stereo not shown) [Example 238, 3-cyclopropyl-3-(2-((1-(2-((2,6-dimethylpyrimidin-4-yl) (2,2,2-trifluoroethyl)-carbamoyl)-5-methoxyphenyl)piperidin-4-yl)methoxy)pyridin-4-yl)propanoic acid], for which the activation at 1 µM is 101%.

Turning to `COc1ccc(C(=O)N(c2ccccn2)C2CCN(CC(F)(F)F)CC2)c(N2CCC(COc3cc(C(CC(=O)O)C4CC4)ccn3)CC2)c1` (stereo not shown) [Example 191, 3-cyclopropyl-3-(2-((1-(5-methoxy-2-(pyridin-2-yl(1-(2,2,2-trifluoroethyl)piperidin-4-yl)carbamoyl)phenyl)piperidin-4-yl)methoxy)pyridin-4-yl)propanoic acid], the “Activity (human GPR40 agonist activity)” value is 86%. Molecule `COc1ccc(C(=O)N(CC(F)(F)C(F)F)c2ccccn2)c(N2CCC(COc3cc(C(CC(=O)O)C4CC4)ccn3)CC2)c1` (stereo not shown) [Example 138, 3-cyclopropyl-3-(2-((1-(5-methoxy-2-(pyridin-2-yl(2,2,3,3-tetrafluoropropyl)carbamoyl)phenyl)piperidin-4-yl)methoxy)pyridin-4-yl)propanoic acid] gave an activation at 1 µM of 102%.

`Cc1cccc(N(CC(C)(C)C)C(=O)c2ccc(Br)cc2N2CCC(COc3cc(C(CC(=O)O)C4CC4)ccn3)CC2)n1` (stereo not shown) [Example 263, 3-(2-((1-(5-bromo-2-((2,2-dimethylpropyl)(6-methylpyridin-2-yl)carbamoyl)phenyl)piperidin-4-yl)methoxy)pyridin-4-yl)-3-cyclopropylpropanoic acid] showed an activation at 1 µM of 94%. Turning to `COc1ccc(C(=O)N(c2ccccn2)C2CCC2)c(N2CCC(COc3cc(C(CC(=O)O)C4CC4)ccn3)CC2)c1` (stereo not shown) [Example 151, 3-(2-((1-(2-(cyclobutyl(pyridin-2-yl)carbamoyl)-5-methoxyphenyl)piperidin-4-yl)methoxy)pyridin-4-yl)-3-cyclopropylpropanoic acid], the activation at 1 µM worked out at 87%. Still for that read-out and setting: then `COc1ccc(C(=O)N(CC(C)(C)F)c2ccccn2)c(N2CCC(COc3cc(C(CC(=O)O)C4CC4)ccn3)CC2)c1` (stereo not shown) [Example 120, 3-cyclopropyl-3-(2-((1-(2-((2-fluoro-2-methylpropyl)(pyridin-2-yl)carbamoyl)-5-methoxyphenyl)piperidin-4-yl)methoxy)pyridin-4-yl)propanoic acid], with 100%; and `COc1ccc(C(=O)N(Cc2ccccc2)c2ccccn2)c(N2CCC(COc3cc(C(CC(=O)O)C4CC4)ccn3)CC2)c1` (stereo not shown) [Example 197, 3-(2-((1-(2-(benzyl(pyridin-2-yl)carbamoyl)-5-methoxyphenyl)piperidin-4-yl)methoxy)pyridin-4-yl)-3-cyclopropylpropanoic acid], with 103%; and `COc1ccc(C(=O)N(CC(C)C)c2cccc(OC)n2)c(N2CCC(COc3cc(C(CC(=O)O)C4CC4)ccn3)CC2)c1` (stereo not shown) [Example 128, 3-cyclopropyl-3-(2-((1-(5-methoxy-2-((6-methoxypyridin-2-yl)(2-methylpropyl)carbamoyl)phenyl)piperidin-4-yl)methoxy)pyridin-4-yl)propanoic acid], with 103%.

For the molecule `COc1ccc(C(=O)N(CC2CCC2)c2ccccn2)c(N2CCC(COc3cc(C(CC(=O)O)C4CC4)ccn3)CC2)c1` (stereo not shown) [Example 118, 3-(2-((1-(2-((cyclobutylmethyl)(pyridin-2-yl)carbamoyl)-5-methoxyphenyl)piperidin-4-yl)methoxy)pyridin-4-yl)-3-cyclopropylpropanoic acid], the activation at 1 µM amounted to 103%. As to `COc1ccc(C(=O)N(c2ccccn2)C2CC(F)(F)C2)c(N2CCC(COc3cc(C(CC(=O)O)C4CC4)ccn3)CC2)c1` (stereo not shown) [Example 165, 3-cyclopropyl-3-(2-((1-(2-((3,3-difluorocyclobutyl)(pyridin-2-yl)carbamoyl)-5-methoxyphenyl)piperidin-4-yl)methoxy)pyridin-4-yl)propanoic acid], the activation at 1 µM is 97%. `Cc1cccc(N(CC(C)(C)C)C(=O)c2ccc(Cl)cc2N2CCC(COc3cc(C(CC(=O)O)C4CC4)ccn3)CC2)n1` (stereo not shown) [Example 266, 3-(2-((1-(5-chloro-2-((2,2-dimethylpropyl)(6-methylpyridin-2-yl)carbamoyl)phenyl)piperidin-4-yl)methoxy)pyridin-4-yl)-3-cyclopropylpropanoic acid] returned an activation at 1 µM of 94%. In turn, `COc1ccc(C(=O)N(CC(F)(F)C(F)(F)F)c2ncccn2)c(N2CCC(COc3cc(C(CC(=O)O)C4CC4)ccn3)CC2)c1` (stereo not shown) [Example 170, 3-cyclopropyl-3-(2-((1-(5-methoxy-2-((2,2,3,3,3-pentafluoropropyl)(pyrimidin-2-yl)carbamoyl)phenyl)piperidin-4-yl)methoxy)pyridin-4-yl)propanoic acid] came in with an activation at 1 µM of 104%. Turning to `COc1ncc(C(=O)N(CC(C)(C)C)c2cccc(C)n2)c(N2CCC(COc3cc(C(CC(=O)O)C4CC4)ccn3)CC2)n1` (stereo not shown) [Example 287, 3-cyclopropyl-3-(2-((1-(5-((2,2-dimethylpropyl) (6-methylpyridin-2-yl)carbamoyl)-2-methoxypyrimidin-4-yl)piperidin-4-yl)methoxy)pyridin-4-yl)propanoic acid], the activation at 1 µM was determined as 82%. With `COc1ccc(C(=O)N(CC(F)(F)F)c2ccccn2)c(N2CCC(COc3cc(C(CC(=O)O)C4CC4)ccn3)CC2)c1` (stereo not shown) [Example 116, 3-cyclopropyl-3-(2-((1-(5-methoxy-2-(pyridin-2-yl(2,2,2-trifluoroethyl)carbamoyl)phenyl)piperidin-4-yl)methoxy)pyridin-4-yl)propanoic acid], the activation at 1 µM came to 101%.
